Test results reported in BindingDB's records for patent US12357603 (Bayer Aktiengesellschaft; The Broad Institute, Inc., 2025).
pIC50: −log10 of the molar value.

What was measured:
[1] = target: T1, Histone acetyltransferase KAT6B [431-2073] (Homo sapiens (Human), UniProt Q8WYB5); assay: Kat6b Activity Assay
T1 construct: 431-2073

[2] = target: Histone acetyltransferase KAT6A (UniProt Q92794); assay: Kat6a Activity Assay
Procedure: Recombinant human His-tagged Kat6a protein (amino acids 194-810), was purified in-house from Baculovirus-infected insect cells (Sf9). Histone H4 peptide (amino acids 1-24, […]-VLRD-K(Btn)-amide), which was used as substrate, was synthesized by Biosyntan GmbH, Berlin, Germany. Acetyl Coenzyme A was purchased from Sigma-Aldrich (#A-2056).Kat6a was incubated for 60 mins at 22° C. in the presence of different concentrations of test substances (0 μM, and within the range 0.01-20 μM) in assay buffer [25 mM Tris/HCl pH 8, 1 mM EGTA, 2.5 mM Glutathion, 0.02% Chicken Albumin, 0.05% Pluronic F127, 25 mM NaCl, 220 nM H4 peptide and 600 nM Acetyl Coenzym A].The reaction was stopped by addition of Detection Solution (25 mM HEPES pH 7.5, 0.1% BSA, 22 nM SAXL665 (Cisbio #610SAXLE), 100 μM Anacardic Acid (Enzo #ALX-270-381), 1 nM Anti-Histone H4 (ACETYL K8) Antibody (ABCAM #AB15823) and 0.5 nM Anti-Rabbit IgG Eu (Perkin Elmer #AD0083).

T1 sequence (Q8WYB5 431-2073): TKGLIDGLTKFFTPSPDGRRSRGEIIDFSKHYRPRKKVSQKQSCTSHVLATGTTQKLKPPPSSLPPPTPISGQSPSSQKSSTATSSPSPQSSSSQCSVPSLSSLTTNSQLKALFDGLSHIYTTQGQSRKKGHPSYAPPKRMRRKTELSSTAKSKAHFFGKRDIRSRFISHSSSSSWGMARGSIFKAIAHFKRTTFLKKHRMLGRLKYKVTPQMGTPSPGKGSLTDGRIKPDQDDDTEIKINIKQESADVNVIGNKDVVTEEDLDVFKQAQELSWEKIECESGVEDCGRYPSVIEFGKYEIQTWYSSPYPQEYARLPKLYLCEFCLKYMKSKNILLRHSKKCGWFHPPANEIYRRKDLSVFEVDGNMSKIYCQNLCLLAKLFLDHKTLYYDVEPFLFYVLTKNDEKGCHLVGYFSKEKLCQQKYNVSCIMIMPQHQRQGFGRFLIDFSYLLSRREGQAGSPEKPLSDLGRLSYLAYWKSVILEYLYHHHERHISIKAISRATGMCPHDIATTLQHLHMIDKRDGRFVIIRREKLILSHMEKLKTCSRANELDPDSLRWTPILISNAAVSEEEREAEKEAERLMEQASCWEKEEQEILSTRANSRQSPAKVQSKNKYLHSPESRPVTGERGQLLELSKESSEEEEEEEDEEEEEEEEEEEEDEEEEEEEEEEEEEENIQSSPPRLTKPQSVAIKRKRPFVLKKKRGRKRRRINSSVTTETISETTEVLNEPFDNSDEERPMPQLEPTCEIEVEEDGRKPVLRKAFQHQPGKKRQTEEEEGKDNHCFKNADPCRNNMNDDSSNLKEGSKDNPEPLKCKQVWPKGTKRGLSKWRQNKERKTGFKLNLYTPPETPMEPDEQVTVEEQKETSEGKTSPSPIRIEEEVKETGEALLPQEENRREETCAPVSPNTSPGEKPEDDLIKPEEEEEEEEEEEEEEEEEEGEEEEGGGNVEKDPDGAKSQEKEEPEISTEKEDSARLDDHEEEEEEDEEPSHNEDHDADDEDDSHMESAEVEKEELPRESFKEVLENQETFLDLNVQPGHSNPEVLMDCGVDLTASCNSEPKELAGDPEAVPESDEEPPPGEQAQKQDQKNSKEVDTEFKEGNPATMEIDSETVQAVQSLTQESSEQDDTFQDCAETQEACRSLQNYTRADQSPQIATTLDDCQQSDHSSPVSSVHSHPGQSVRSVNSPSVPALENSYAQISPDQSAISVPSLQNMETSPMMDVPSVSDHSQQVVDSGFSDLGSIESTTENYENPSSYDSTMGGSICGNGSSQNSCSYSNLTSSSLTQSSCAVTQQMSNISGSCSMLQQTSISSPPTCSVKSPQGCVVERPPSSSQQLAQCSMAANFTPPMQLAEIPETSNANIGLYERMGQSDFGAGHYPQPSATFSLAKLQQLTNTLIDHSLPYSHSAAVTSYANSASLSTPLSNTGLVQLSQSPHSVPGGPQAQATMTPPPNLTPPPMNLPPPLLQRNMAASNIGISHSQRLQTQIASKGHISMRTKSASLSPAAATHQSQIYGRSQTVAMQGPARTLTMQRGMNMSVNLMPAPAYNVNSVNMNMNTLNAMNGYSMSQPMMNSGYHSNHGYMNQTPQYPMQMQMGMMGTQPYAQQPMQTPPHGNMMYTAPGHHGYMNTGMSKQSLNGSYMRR
Sequence of Histone acetyltransferase KAT6A (Q92794 whole entry, the tested form may be a part): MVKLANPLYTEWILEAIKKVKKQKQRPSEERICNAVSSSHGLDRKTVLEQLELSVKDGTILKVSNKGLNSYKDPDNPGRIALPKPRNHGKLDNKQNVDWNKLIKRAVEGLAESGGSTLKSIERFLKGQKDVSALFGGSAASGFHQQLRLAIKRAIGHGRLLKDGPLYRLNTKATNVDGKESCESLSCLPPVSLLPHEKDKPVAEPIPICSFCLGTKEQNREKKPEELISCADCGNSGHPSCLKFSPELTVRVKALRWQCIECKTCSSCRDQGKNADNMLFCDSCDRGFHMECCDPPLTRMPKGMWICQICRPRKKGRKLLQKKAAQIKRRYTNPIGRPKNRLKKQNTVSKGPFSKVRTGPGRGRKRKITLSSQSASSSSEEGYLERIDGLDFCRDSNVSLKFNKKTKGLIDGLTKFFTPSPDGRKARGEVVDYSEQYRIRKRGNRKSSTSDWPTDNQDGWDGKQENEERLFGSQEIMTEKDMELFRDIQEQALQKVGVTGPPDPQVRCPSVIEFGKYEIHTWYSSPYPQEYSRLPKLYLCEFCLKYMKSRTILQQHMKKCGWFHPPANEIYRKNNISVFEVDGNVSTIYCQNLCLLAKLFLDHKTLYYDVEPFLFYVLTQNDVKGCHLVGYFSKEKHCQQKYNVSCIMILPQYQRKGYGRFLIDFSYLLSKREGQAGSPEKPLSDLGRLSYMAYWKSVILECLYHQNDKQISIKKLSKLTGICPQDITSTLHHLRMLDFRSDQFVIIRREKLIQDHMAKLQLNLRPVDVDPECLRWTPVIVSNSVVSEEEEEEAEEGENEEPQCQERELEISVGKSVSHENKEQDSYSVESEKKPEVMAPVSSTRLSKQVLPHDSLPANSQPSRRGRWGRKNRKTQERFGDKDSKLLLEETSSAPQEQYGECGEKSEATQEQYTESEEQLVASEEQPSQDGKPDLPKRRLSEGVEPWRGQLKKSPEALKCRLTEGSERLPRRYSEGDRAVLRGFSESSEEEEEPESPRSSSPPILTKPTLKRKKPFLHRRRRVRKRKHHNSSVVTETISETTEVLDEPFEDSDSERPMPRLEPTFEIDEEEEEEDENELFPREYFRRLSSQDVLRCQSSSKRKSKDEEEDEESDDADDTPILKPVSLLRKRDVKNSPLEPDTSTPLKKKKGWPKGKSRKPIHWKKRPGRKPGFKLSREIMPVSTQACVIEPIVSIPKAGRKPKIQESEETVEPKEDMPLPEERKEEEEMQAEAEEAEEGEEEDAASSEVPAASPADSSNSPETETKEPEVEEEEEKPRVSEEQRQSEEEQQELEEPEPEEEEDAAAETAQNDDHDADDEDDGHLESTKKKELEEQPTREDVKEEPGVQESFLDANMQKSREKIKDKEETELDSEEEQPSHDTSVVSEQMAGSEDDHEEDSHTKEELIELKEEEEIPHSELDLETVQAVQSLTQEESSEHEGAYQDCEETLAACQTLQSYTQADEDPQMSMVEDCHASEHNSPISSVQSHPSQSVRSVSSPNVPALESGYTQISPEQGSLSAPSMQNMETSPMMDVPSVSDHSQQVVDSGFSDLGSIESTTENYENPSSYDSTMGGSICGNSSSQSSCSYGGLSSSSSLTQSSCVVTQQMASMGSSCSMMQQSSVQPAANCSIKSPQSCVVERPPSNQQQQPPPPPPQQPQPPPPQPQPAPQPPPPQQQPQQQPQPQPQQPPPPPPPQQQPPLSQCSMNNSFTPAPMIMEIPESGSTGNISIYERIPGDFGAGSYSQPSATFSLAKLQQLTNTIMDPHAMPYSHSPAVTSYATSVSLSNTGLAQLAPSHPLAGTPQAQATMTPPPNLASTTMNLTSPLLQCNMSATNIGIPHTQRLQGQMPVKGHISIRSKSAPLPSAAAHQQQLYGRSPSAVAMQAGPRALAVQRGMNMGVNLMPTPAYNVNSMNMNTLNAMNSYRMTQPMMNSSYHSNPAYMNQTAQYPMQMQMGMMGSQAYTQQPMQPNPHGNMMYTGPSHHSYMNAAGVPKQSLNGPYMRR

| pIC50 [1] | pIC50 [2] | Structure (SMILES) |
| --- | --- | --- |
| 7.28 | 7.03 | CN(C)c1ccc2cc(C(=O)NS(=O)(=O)c3cc(Cl)cc4cccnc34)oc2c1 [US12357603, Example 124] |
|  | 5.33 | CN(C)c1c(Br)cc2cc(C(=O)NS(=O)(=O)c3ccccc3-c3ccccc3)oc2c1F [US12357603, Example 206] |
|  | 5.11 | CC(C)Oc1ccccc1S(=O)(=O)NC(=O)c1cc2cc(Br)c(N(C)C)cc2o1 [US12357603, Example 208] |
|  | 6.04 | Cc1ccc2cccc(S(=O)(=O)NC(=O)c3cc4cc(C#N)c(N(C)C)cc4o3)c2n1 [US12357603, Example 209] |
|  | 5.97 | CCOc1ccc(Br)cc1S(=O)(=O)NC(=O)c1cc2ccc(N(C)CCOC)cc2o1 [US12357603, Example 213] |

The remaining lines, values behind:

| Structure (SMILES) | pIC50 [1] | pIC50 [2] |
| --- | --- | --- |
| CCN(C)c1ccc2cc(C(=O)NS(=O)(=O)c3ccc(Cl)cc3Cl)oc2c1 [US12357603, Example 03] | 6.09 | 5.86 |
| CN(c1ccccc1)c1ccc2cc(C(=O)NS(=O)(=O)c3ccc(Cl)cc3Cl)oc2c1 [US12357603, Example 09] | 5.24 | 5.59 |
| CCCN(C)c1ccc2cc(C(=O)NS(=O)(=O)c3ccccc3-c3ccccc3)oc2c1 [US12357603, Example 37] | 5.97 |  |
| COCCN(C)c1ccc2cc(C(=O)NS(=O)(=O)c3ccccc3-c3ccccc3)oc2c1 [US12357603, Example 39] | 6.27 |  |
| CN(c1ccc2cc(C(=O)NS(=O)(=O)c3ccccc3-c3ccccc3)oc2c1)C1CCCC1 [US12357603, Example 46] | 6.95 | 5.44 |
| CN(C)c1ccc2cc(C(=O)NS(=O)(=O)c3ccccc3-c3ccc(CO)cc3)oc2c1 [US12357603, Example 51] | 6.99 | 7.24 |
| CCCc1ccccc1S(=O)(=O)NC(=O)c1cc2ccc(N(C)C)cc2o1 [US12357603, Example 52] |  | 6.73 |
| O=C(NS(=O)(=O)c1ccccc1-c1ccccc1)c1cc2ccc(N3CCCC3=O)cc2o1 [US12357603, Example 62] | < 4.70 | 4.87 |
| CN(C)c1ccc2cc(C(=O)NS(=O)(=O)c3ccccc3-c3ccccc3)oc2c1C#N [US12357603, Example 64] |  | 4.84 |
| CN(C)c1ccc2cc(C(=O)NS(=O)(=O)c3c(Cl)cccc3Cl)oc2c1 [US12357603, Example 98] |  | 6.33 |
